Numbers after ± are expanded uncertainties.
Legend:
[1] = Liquid; for mass density: 298.15 K, 101.33 kPa
[2] = refractive index (Na D-line) (dimensionless); conditions: 298.15 K; 101.33 kPa; Liquid; Standard Abbe refractometry

| mass density [1] [kg/m3] | vapor or sublimation pressure ([1]; 363.16 K) [kPa] | refractive index [2] | vapor or sublimation pressure ([1]; 425.63 K) [kPa] | vapor or sublimation pressure ([1]; 369.75 K) [kPa] | SMILES |
| --- | --- | --- | --- | --- | --- |
| 741.81 ± 0.65 | 101.3 ± 0.8 | 1.3784 ± 0.0008 | – | – | CCCOCCC [dipropyl ether] |
| 948.72 ± 0.49 | – | 1.4265 ± 0.0008 | 101.3 ± 0.8 | – | CN(C)C=O [dimethylformamide] |
| 799.62 ± 0.57 | – | 1.3836 ± 0.0008 | – | 101.3 ± 0.8 | CCCO [propan-1-ol] |

From the NIST ThermoML archive (doi:10.1021/je0604479)
